Test results taken from patent US9884065B2, “Inhibiting activity of senescent cells using a glucocorticoid” (Buck Institute for Research on Aging, priority 2011, dated 2018).

How the values were obtained:
SASP = experiment: Antibody arrays of conditioned media (120 cytokines and growth factors, SASP); type: cell-based, human; settings: 500 nM corticosterone or 100 nM cortisol
Protocol: Cultures were washed and incubated in serum-free DMEM for 24 hours and the conditioned media were diluted to equivalent cell numbers using DMEM. Antibody arrays from Raybiotech (AAH-CYT-G1000-8) were used according to the manufacturer's instructions. Arrays were scanned using a GenePix 4200A Professional microarray scanner. Signal intensities were quantitated using LI-COR Odyssey software and normalized to positive controls for each sample, which were then normalized across all samples, as previously described (Freund et al., 2011, EMBO J. 30:1536-1548).
To determine whether or not, or to what extent corticosterone or cortisol suppressed the entire SASP, antibody arrays were used to interrogate the relative secretion of 120 cytokines and growth factors. Presenescent and senescent cells were incubated with 500 nM corticosterone or 100 nM cortisol (FIG. 12C).

[1] = target: T1, glucocorticoid receptor (GR) (Homo sapiens, UniProt P04150); experiment: Immunostaining for GR localization in HCA2 cells; type: cell-based; settings: senescent HCA2 cells; 500 nM corticosterone or 100 nM cortisol
T1 construct: endogenous in cells; host or cells: HCA2 human fibroblasts
T1 sequence (P04150 1-777): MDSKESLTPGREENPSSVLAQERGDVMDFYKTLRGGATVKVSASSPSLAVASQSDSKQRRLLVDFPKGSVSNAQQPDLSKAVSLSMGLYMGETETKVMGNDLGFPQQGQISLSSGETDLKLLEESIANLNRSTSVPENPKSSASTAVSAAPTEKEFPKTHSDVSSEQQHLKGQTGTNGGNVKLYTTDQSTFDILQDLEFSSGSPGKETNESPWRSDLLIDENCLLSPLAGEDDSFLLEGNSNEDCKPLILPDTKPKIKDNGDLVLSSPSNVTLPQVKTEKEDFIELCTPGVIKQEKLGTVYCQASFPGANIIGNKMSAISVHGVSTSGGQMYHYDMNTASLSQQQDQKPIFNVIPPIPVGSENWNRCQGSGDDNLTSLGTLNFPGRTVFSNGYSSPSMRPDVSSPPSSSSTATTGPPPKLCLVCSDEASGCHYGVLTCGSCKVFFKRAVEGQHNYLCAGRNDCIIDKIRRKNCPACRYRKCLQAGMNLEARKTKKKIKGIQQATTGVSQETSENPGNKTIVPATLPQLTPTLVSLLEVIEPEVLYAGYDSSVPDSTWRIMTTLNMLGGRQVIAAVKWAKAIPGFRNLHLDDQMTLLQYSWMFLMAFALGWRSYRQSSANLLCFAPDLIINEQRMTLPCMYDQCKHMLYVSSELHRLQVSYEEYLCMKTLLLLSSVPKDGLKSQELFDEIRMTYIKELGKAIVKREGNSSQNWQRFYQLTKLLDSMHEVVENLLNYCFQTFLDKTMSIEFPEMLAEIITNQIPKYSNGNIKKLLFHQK
Protocol: (§1) Cells were cultured in 8-well chamber slides, fixed in 4% formaldehyde (Sigma) for 10 min at 4° C. and permeabilized in PBS-0.5% Triton for 10 min in 4° C.

IL-1α = experiment: Immunostaining for IL-1α in HCA2 cells; type: cell-based, human; settings: senescent cells 7 days after irradiation; 500 nM corticosterone or 100 nM cortisol
Protocol: (FIG. 14B) mRNA extracted from cells described in (FIG. 14A) was used to quantify transcripts for IL-6 (normalized to tubulin). (FIG. 14C) Pre and Sen (XRA) cells, prepared as described in (FIG. 14A), were immunostained for IL-1α. Sen (XRA) cells were immunostained 7 days after irradiation.
as §1

NF-κB = NF-κB reporter-luciferase transactivation assay; type: cell-based, human; settings: senescent cells; 500 nM corticosterone or 100 nM cortisol
Protocol: Nuclear extracts were prepared using the nuclear extract kit (Active Motif), and NF-κB DNA binding was determined using the TransAM NF-κB p65 kit (Active Motif). For transactivation assays, cells infected with the NF-κB reporter-luciferase lentivirus were lysed in buffer (Promega), and luciferase activity was normalized to cell number, as described (Freund et al., 2011, EMBO J. 30:1536-1548).

[2] = test system: T47D human breast cancer cells; experiment: Invasion assay: conditioned media from HCA2 fibroblasts stimulating T47D invasion of basement membrane; type: cell-based; settings: HCA2 fibroblasts treated with corticosterone or cortisol for 10 d
Protocol: T47D human breast cancer cells (120,000 cells/well) were plated atop a layer of Matrigel in the upper chambers of Transwells (BD Biosciences). The lower chambers contained conditioned media from pre-senescent or senescent HCA2 fibroblasts treated with corticosterone or cortisol for 10 d. After 18 h, cells that migrated to the underside of the upper chamber filter were stained and counted, as described (Coppe et al., 2008, PLoS Biol. 6:2853-2868; Coppe et al., 2010, PLoS ONE 5:e9188).

| Compound | secretion of growth and angiogenic factors (SASP) | secretion of pro-inflammatory cytokines and chemokines (SASP) | suppression of all components of the SASP (SASP) | GR localization [1] | expression of IL-1α protein (nuclear staining) (IL-1α) | NF-κB transactivation activity (NF-κB) | ability of senescent conditioned media to stimulate T47D invasiveness [2] |
| --- | --- | --- | --- | --- | --- | --- | --- |
| C[C@]12C[C@H](O)[C@H]3[C@@H](CCC4=CC(=O)CC[C@@]43C)[C@@H]1CC[C@@H]2C(=O)CO [corticosterone] | suppressed the secretion of several growth and angiogenic factors such as VEGF | strongly suppressed the secretion of several pro-inflammatory cytokines and chemokines, including IL-6, IL-8, GM-CSF and MCP-2 | Neither glucocorticoid suppressed all components of the SASP | translocated into the nucleus | suppressed expression of IL-1α protein | significantly decreased | near-presenescent levels |
| C[C@]12CCC(=O)C=C1CC[C@@H]1[C@@H]2[C@@H](O)C[C@@]2(C)[C@H]1CC[C@]2(O)C(=O)CO [cortisol] | suppressed the secretion of several growth and angiogenic factors such as VEGF | strongly suppressed the secretion of several pro-inflammatory cytokines and chemokines, including IL-6, IL-8, GM-CSF and MCP-2 | Neither glucocorticoid suppressed all components of the SASP | translocated into the nucleus | suppressed expression of IL-1α protein | significantly decreased | near-presenescent levels |
